Consider 10 compounds from ChEMBL document CHEMBL1201862, “PubChem BioAssay data set” (2004).

The structures appear in SMILES notation.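 Each compound was tested at five concentrations against cells in 96-well plates for 48 hours. GI50 = concentration required for 50% inhibition of growth.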 Activity calls are given as the source filed them. Cut-off read from the data, not from the text of the source: active = GI50 up to about 1.1 µM and inactive = higher. Some results are limits rather than exact numbers.

Common to all, as to assay: growth of human tumour cells (NCI), 48 h
Experiment [1] deals with 786-0.
In experiment [2] the test system is ACHN.
Experiment [3] has as its system HCC 2998.
In experiment [4] the test system is HL-60.
Experiment [5] concerns HOP-62.
Experiment [6] relates to Hs-578T.
Experiment [7] has as its system K562.
The subject of experiment [8] is M14.
The test system of experiment [9] is MCF7.
Experiment [10] concerns MDA-N.
Experiment [11] concerns MOLT-4.
The test system of experiment [12] is NCI/ADR-RES.
Experiment [13] concerns OVCAR-3.
Experiment [14] has as its system OVCAR-8.
In experiment [15] the test system is PC-3.
The subject of experiment [16] is SF-539.
Experiment [17] relates to SK-MEL-2.
In experiment [18] the test system is SR.
Experiment [19] deals with SW-620.
Experiment [20] deals with UACC-62.

On to `Nc1ccccc1/N=C/c1cc2cc([N+](=O)[O-])ccc2s1`, for which the GI50 is 14.5 µM (inactive) in [1]; 11.6 µM (inactive) in experiment [2]; 19.3 µM (inactive) in experiment [3]; 7.43 µM (inactive) in experiment [4]; 16.8 µM (inactive) in [5]; 15.1 µM (inactive) in experiment [6]. Further, the GI50 is 12.7 µM (inactive) in experiment [7]; 22.4 µM (inactive) in experiment [8]; 5.27 µM (inactive) in experiment [9]; 37.8 µM (inactive) in experiment [10]; 3.08 µM (inactive) in [11]; 32.1 µM (inactive) in experiment [12]. Besides, the GI50 in [13] was 14 µM (inactive); in [14] it was 15 µM (inactive); in experiment [15], 14.2 µM (inactive); in experiment [16], 12.1 µM (inactive); in experiment [17], 12.7 µM (inactive); in [18], 11 µM (inactive). For the same compound, the GI50 in [19] is 29.5 µM (inactive); in experiment [20] it was 12.6 µM (inactive).
With `CC(C)c1nc(Cl)c(Cl)c(Cl)n1`, the GI50 is 2.99 µM (inactive) in experiment [1]; 0.769 µM (active) in experiment [2]; 3.49 µM (inactive) in [3]; 1.71 µM (inactive) in experiment [4]; 12.6 µM (inactive) in experiment [5]; 2.76 µM (inactive) in experiment [6]. Also, the GI50 in [7] is 0.286 µM (active); in experiment [8], 5.51 µM (inactive); in [9], 1.75 µM (inactive); in experiment [10], 4.35 µM (inactive); in [11] it was 1.8 µM (inactive); in experiment [12], 5.78 µM (inactive). Moreover, the GI50 in experiment [13] was 1.99 µM (inactive); in experiment [14] it was 2.1 µM (inactive); in experiment [15] it was 4.31 µM (inactive); in experiment [16], 9.2 µM (inactive); in [18] it was 0.431 µM (active); in experiment [19], 1.7 µM (inactive). Further, the GI50 in experiment [20] is 8.41 µM (inactive).
`CC12CP(=O)(c3ccccc3)CC1c1ccccc1C2c1ccccc1` (centres undefined): the GI50 in experiment [1] was 17.3 µM (inactive); in experiment [2], 18 µM (inactive); in experiment [3] it was 17.7 µM (inactive); in experiment [4], 7.52 µM (inactive); in [5], 18.5 µM (inactive); in [6] it was 26.3 µM (inactive). The GI50 was 5.9 µM (inactive) in [7]; 17.5 µM (inactive) in experiment [8]; > 100 µM (inactive) in experiment [9]; 16.6 µM (inactive) in [10]; 11.4 µM (inactive) in experiment [11]; 14.2 µM (inactive) in [12]. The GI50 in [13] is 16.7 µM (inactive); in experiment [14], 15.2 µM (inactive); in experiment [15], 12.4 µM (inactive); in [16], 17.8 µM (inactive); in [17] it was 28 µM (inactive); in [18] it was 14.3 µM (inactive). For the same compound, the values for the GI50 in experiment [19] and in experiment [20] were 17 µM (inactive) and 29.2 µM (inactive), respectively.
In the case of `CC(C)COC(c1ccc2c(c1)OCO2)C(C)Br` (centres undefined), the GI50 in experiment [1] is 23.4 µM (inactive); in experiment [2], 34 µM (inactive); in experiment [3], 18.4 µM (inactive); in experiment [5], 24.9 µM (inactive); in [6], 25.9 µM (inactive); in [7] it was 46.7 µM (inactive). Further, the GI50 is 21.1 µM (inactive) in experiment [8]; 31.4 µM (inactive) in [9]; 21.6 µM (inactive) in experiment [10]; 28.4 µM (inactive) in [12]; 16.2 µM (inactive) in experiment [13]; 30.2 µM (inactive) in experiment [14]. Besides, the GI50 in experiment [15] was 30.9 µM (inactive); in [16], 23.3 µM (inactive); in experiment [17] it was 21.8 µM (inactive); in experiment [18] it was 21.2 µM (inactive); in [19], 28.9 µM (inactive); in [20], 31.7 µM (inactive).
Regarding `COc1ccc(N2C(=O)CC(C3CC(C(C)(C)C)CCC3=O)C2=O)cc1` (centres undefined), the GI50 in experiment [1], in [2], in experiment [3], in experiment [4], in experiment [5] and in [6] was > 100 µM (inactive) throughout. Also, the GI50 in experiment [7], in experiment [8], in [9], in experiment [10], in experiment [11] and in experiment [12] was > 100 µM (inactive) in each case. For the same compound, the GI50 in experiment [14], in experiment [15], in experiment [16], in experiment [18], in experiment [19] and in [20] was > 100 µM (inactive) in each case.
For the compound `CCOC(=O)CCSc1nc2ccc(I)cc2c(=O)n1Cc1ccccc1`, the GI50 in experiment [1] is 25.6 µM (inactive); in [2] it was 29.5 µM (inactive); in experiment [3], 26.5 µM (inactive); in experiment [4], 19.5 µM (inactive); in experiment [5], 26.5 µM (inactive); in [6], 25.2 µM (inactive). For the same compound, the GI50 in experiment [7] was 24 µM (inactive); in experiment [8] it was 24.5 µM (inactive); in experiment [9], 29.1 µM (inactive); in experiment [10], 25.7 µM (inactive); in experiment [12], 23.7 µM (inactive); in [13], 17.9 µM (inactive). Further, the GI50 in experiment [14] was 37.5 µM (inactive); in experiment [15], 41.7 µM (inactive); in experiment [16], 36.4 µM (inactive); in [17], 31 µM (inactive); in experiment [18], 7.24 µM (inactive); in [19] it was 41.1 µM (inactive). Also, the GI50 in experiment [20] is 27.4 µM (inactive).
For `CC(=O)OCC(OC(C)=O)C1C[C@H]2O[C@@H]3[C@H](C[C@H]2O1)O[C@@]1(C[C@@H]3C)C[C@H](C)[C@@H]2O[C@]3(C[C@@H]2O1)C[C@H]1O[C@H]2[C@H](C)[C@H]4OC(=O)CC5CC[C@H]6OC7[C@H]8O[C@]9(CC[C@H]%10CC(O)(CO)[C@H](CC[C@H]%11C[C@@H](C)C(O)(CO)C(C[C@@H]4O[C@H]2C[C@H]1O3)O%11)O%10)CC8O[C@@H]7[C@@H](O9)[C@H]6O5` (some centres undefined), the GI50 in experiment [1] is 0.00532 µM (active); in [2] it was 0.0479 µM (active); in experiment [3], 0.00532 µM (active); in experiment [5] it was 0.0622 µM (active); in experiment [6] it was 0.00154 µM (active); in [7], 0.00116 µM (active). Further, the GI50 was 0.00935 µM (active) in [8]; 0.00281 µM (active) in [9]; 0.00083 µM (active) in experiment [10]; 0.0064 µM (active) in [11]; 0.0201 µM (active) in [12]; 0.00655 µM (active) in [13]. The GI50 was 0.0121 µM (active) in [14]; 0.00614 µM (active) in experiment [15]; 0.116 µM (active) in experiment [17]; 0.000581 µM (active) in experiment [18]; 0.00492 µM (active) in [19]; 0.00305 µM (active) in experiment [20].
Take `CC(=O)OCC1OC(n2c(C)c(/N=N/c3ccccc3)c(C)c(C#N)c2=S)C(OC(C)=O)C(OC(C)=O)C1OC(C)=O` (centres undefined): the GI50 was 7.38 µM (inactive) in [1]; > 100 µM (inactive) in [2]; > 100 µM (inactive) in [3]; > 100 µM (inactive) in experiment [4]; 14.4 µM (inactive) in experiment [5]; 5.32 µM (inactive) in [6]. Also, the GI50 in experiment [7] was > 100 µM (inactive); in experiment [8], 33.7 µM (inactive); in [9], > 100 µM (inactive); in [10], > 100 µM (inactive); in experiment [11] it was > 100 µM (inactive); in [12], 55.3 µM (inactive). Besides, the GI50 in experiment [13] is > 100 µM (inactive); in [15], > 100 µM (inactive); in [16], 58.7 µM (inactive); in experiment [17], 24.9 µM (inactive); in experiment [18], > 100 µM (inactive); in experiment [19] it was > 100 µM (inactive). In addition, the GI50 in experiment [20] is 14.8 µM (inactive).
For the compound `COc1ccc(C2=Nn3c(C)nnc3S/C2=C\c2ccc(-c3ccc([N+](=O)[O-])cc3)o2)cc1`, the GI50 is 4.94 µM (inactive) in experiment [1]; 11.7 µM (inactive) in experiment [2]; 7.41 µM (inactive) in experiment [3]; 5.12 µM (inactive) in [4]; 24.4 µM (inactive) in experiment [5]; 49.4 µM (inactive) in [6]. In addition, the GI50 in experiment [7] is 3.55 µM (inactive); in experiment [8], 17.7 µM (inactive); in experiment [9], 3.18 µM (inactive); in experiment [10] it was 6.62 µM (inactive); in [11], 3.56 µM (inactive); in experiment [12], 7.85 µM (inactive). In addition, the GI50 was 10.9 µM (inactive) in experiment [13]; 3.62 µM (inactive) in [14]; 9.84 µM (inactive) in experiment [15]; 5.51 µM (inactive) in experiment [16]; 13.3 µM (inactive) in [17]; 3.21 µM (inactive) in [18]. Further, in experiment [20], the GI50 is 12.1 µM (inactive).
With `CN(C)c1ccc(C(=C2C=CC(=[N+](C)C)C=C2)c2c(O)c(S(=O)(=O)[O-])cc3cc(S(=O)(=O)O)ccc23)cc1`, the GI50 in [1], in experiment [2], in experiment [3], in experiment [5], in experiment [6] and in [7] was > 100 µM (inactive) in each case. The GI50 in experiment [8], in experiment [9], in experiment [10], in experiment [11], in [12] and in [13] was > 100 µM (inactive) throughout. For the same compound, the GI50 in experiment [14], in experiment [15], in experiment [16], in [17], in experiment [18] and in [19] was > 100 µM (inactive) each time. In experiment [20], the GI50 was > 100 µM (inactive).
